In US20250059198A1, “BRM DEGRADING COMPOUNDS AND ASSOCIATED METHODS OF USE” (Arvinas Operations, Inc., priority 2021, published 2025) one finds DC50 and Dmax data, which are given here for twelve molecules.

In this assay the target is T1, BRM (Homo sapiens, UniProt P51531).
T1 construct: Western Blot Screen of BRM Degradation in SW1573 Cells; endogenous in cells; host or cells: SW1573 cells
The assay is described as follows: BRM degradation (Dmax and DC50) in SW1573 cells, Western blot screen / In-Cell Western screen. The class given is cell-based. The settings on record: overnight (18-20 hours) treatment; for Dmax: read-out: Dmax (%)** (% degraded). The method in brief:
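SW1573 cells were treated with compound for 18–20 h (final 0.1% DMSO). BRM was quantified either by Western blot of RIPA lysates or by fixed-cell In-Cell Western (LI-COR, 800/680 nm), each normalised to alpha-tubulin, giving Dmax and DC50.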

Broadly, the DC50 is the concentration at which degradation of the target reaches its halfway point. Lower therefore signals degradation at low concentration. As a reminder, the Dmax is the largest share of the target that was removed.

T1 sequence (P51531 whole entry): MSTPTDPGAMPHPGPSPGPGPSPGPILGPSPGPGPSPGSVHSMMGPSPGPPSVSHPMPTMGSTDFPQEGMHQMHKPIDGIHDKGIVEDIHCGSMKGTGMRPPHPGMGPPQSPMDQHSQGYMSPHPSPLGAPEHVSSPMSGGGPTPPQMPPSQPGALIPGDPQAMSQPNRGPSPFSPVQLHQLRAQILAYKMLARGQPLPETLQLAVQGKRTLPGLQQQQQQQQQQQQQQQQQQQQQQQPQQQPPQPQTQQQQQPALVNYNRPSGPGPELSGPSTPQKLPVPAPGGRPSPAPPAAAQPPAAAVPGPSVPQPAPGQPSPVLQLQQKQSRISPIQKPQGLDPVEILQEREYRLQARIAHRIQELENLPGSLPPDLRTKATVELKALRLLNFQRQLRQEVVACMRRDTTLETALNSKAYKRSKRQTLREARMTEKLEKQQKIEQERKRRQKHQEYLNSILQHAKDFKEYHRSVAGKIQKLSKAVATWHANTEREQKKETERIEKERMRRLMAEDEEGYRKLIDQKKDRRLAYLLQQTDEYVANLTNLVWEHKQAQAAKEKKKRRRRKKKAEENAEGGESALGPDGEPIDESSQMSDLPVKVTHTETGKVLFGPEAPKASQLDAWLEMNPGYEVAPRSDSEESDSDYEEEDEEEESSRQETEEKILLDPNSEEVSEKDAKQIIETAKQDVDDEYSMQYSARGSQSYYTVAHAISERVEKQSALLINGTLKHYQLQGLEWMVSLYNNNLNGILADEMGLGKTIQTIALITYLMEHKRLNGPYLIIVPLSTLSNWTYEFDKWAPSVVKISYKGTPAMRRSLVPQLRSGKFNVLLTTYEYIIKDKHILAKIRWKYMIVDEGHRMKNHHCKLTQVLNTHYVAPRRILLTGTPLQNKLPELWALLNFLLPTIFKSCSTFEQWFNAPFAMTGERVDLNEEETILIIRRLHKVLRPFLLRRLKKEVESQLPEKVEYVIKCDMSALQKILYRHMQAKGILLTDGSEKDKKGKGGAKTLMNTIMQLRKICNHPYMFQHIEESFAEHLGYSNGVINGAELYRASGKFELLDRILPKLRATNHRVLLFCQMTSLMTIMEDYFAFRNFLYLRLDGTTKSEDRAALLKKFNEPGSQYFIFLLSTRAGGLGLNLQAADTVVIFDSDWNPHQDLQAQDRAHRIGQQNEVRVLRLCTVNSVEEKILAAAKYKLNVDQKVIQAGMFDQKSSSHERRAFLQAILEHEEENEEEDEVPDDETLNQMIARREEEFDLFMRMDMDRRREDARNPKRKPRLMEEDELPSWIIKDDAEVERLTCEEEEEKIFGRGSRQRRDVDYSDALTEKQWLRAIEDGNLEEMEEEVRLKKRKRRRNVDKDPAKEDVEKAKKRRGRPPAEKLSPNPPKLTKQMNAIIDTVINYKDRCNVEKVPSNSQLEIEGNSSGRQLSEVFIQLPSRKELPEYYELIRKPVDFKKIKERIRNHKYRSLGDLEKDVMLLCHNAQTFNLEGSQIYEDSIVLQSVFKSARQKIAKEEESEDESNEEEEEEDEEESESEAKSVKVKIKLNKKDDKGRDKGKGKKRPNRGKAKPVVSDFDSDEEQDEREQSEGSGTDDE

Consider `Cc1ncsc1-c1ccc([C@H](C)NC(=O)[C@@H]2C[C@@H](O)CN2C(=O)[C@@H](c2cc(N3CCC(CN4CCC(O[C@H]5C[C@H](CN6CCC(N7C8CCC7CN(c7cc(-c9ccccc9O)nnc7N)C8)CC6)C5)CC4)CC3)no2)C(C)C)cc1` [Compound 24, (2S,4R)-4-hydroxy-N-[(1S)-1-[4-(4-methyl-1,3-thiazol-5-yl)phenyl]ethyl]-1-[(2R)-3-methyl-2-{3-[4-({4-[(1r,3r)-3-[(4-{3-[3-amino-6-(2-hydroxyphenyl)pyridazin-4-yl]-3,8-diazabicyclo[3.2.1]octan-8-yl}piperidin-1-yl)methyl]cyclobutoxy]piperidin-1-yl}methyl)piperidin-1-yl]-1,2-oxazol-5-yl}butanoyl]pyrrolidine-2-carboxamide], for which the 50% degradation concentration (DC50) is less than 2.5 nM and the Dmax was greater than 75%.
On to `Cc1ncsc1-c1ccc([C@H](C)NC(=O)[C@@H]2C[C@@H](O)CN2C(=O)[C@@H](c2cc(N3CCC(CN4CCC(O[C@H]5C[C@H](N6CCC(C(=O)N7C8CCC7CN(c7cc(-c9ccccc9O)nnc7N)C8)CC6)C5)CC4)CC3)no2)C(C)C)cc1` [Compound 25, (2S,4R)-4-hydroxy-N-[(1S)-1-[4-(4-methyl-1,3-thiazol-5-yl)phenyl]ethyl]-1-[(2R)-3-methyl-2-{3-[4-({4-[(1r,3r)-3-(4-{3-[3-amino-6-(2-hydroxyphenyl)pyridazin-4-yl]-3,8-diazabicyclo[3.2.1]octane-8-carbonyl}piperidin-1-yl)cyclobutoxy]piperidin-1-yl}methyl)piperidin-1-yl]-1,2-oxazol-5-yl}butanoyl]pyrrolidine-2-carboxamide], for which the DC50 is less than 2.5 nM and the Dmax was greater than 75%.
Turning to `CC(C)[C@@H](C(=O)N1C[C@H](O)C[C@H]1C(=O)N[C@@H](C)c1ccc(C#N)cc1)c1cc(N2CCC(CN3CCC(O[C@H]4C[C@H](Oc5cc(N6CC7CC(C6)N7c6cc(-c7ccccc7O)nnc6N)ccn5)C4)CC3)CC2)no1` [Compound 26, (2S,4R)-N-[(1S)-1-(4-cyanophenyl)ethyl]-4-hydroxy-1-[(2R)-3-methyl-2-{3-[4-({4-[(1r,3r)-3-[(4-{6-[3-amino-6-(2-hydroxyphenyl)pyridazin-4-yl]-3,6-diazabicyclo[3.1.1]heptan-3-yl}pyridin-2-yl)oxy]cyclobutoxy]piperidin-1-yl}methyl)piperidin-1-yl]-1,2-oxazol-5-yl}butanoyl]pyrrolidine-2-carboxamide], the half-maximal degradation concentration (DC50) lay within 2.5 to 10 nM and the greatest degradation seen (Dmax) was greater than 75%.
In the same order, the values of `Cc1ncsc1-c1ccc([C@H](C)NC(=O)[C@@H]2C[C@@H](O)CN2C(=O)[C@@H](c2cc(N3CCC(CN4CCC(O[C@H]5C[C@H](N6CCC(F)(CN7C8CCC7CN(c7cc(-c9ccccc9O)nnc7N)C8)CC6)C5)CC4)CC3)no2)C(C)C)cc1` [Compound 27, (2S,4R)-4-hydroxy-N-[(1S)-1-[4-(4-methyl-1,3-thiazol-5-yl)phenyl]ethyl]-1-[(2R)-3-methyl-2-{3-[4-({4-[(1r,3r)-3-[4-({3-[3-amino-6-(2-hydroxyphenyl)pyridazin-4-yl]-3,8-diazabicyclo[3.2.1]octan-8-yl}methyl)-4-fluoropiperidin-1-yl]cyclobutoxy]piperidin-1-yl}methyl)piperidin-1-yl]-1,2-oxazol-5-yl}butanoyl]pyrrolidine-2-carboxamide] are less than 2.5 nM and greater than 75%.
As for `CC(C)[C@@H](C(=O)N1C[C@H](O)C[C@H]1C(=O)N[C@@H](C)c1ccc(-c2ccnn2C)cc1)c1cc(N2CCC(CN3CCC(O[C@H]4C[C@H](N5CCOC6(CCN(c7cc(-c8ccccc8O)nnc7N)CC6)C5)C4)CC3)CC2)no1` [Compound 28, (2S,4R)-4-hydroxy-N-[(1S)-1-[4-(1-methyl-1H-pyrazol-5-yl)phenyl]ethyl]-1-[(2R)-3-methyl-2-{3-[4-({4-[(1r,3r)-3-{9-[3-amino-6-(2-hydroxyphenyl)pyridazin-4-yl]-1-oxa-4,9-diazaspiro[5.5]undecan-4-yl}cyclobutoxy]piperidin-1-yl}methyl)piperidin-1-yl]-1,2-oxazol-5-yl}butanoyl]pyrrolidine-2-carboxamide], the 50% degradation concentration (DC50) was less than 2.5 nM and the Dmax is greater than 75%.
With `Cc1ncsc1-c1ccc([C@H](C)NC(=O)[C@@H]2C[C@@H](O)CN2C(=O)[C@@H](c2cc(N3CCC(CN4CCC5(CC4)CC(Oc4cc(N6C7CCC6CN(c6cc(-c8ccccc8O)nnc6N)C7)ccn4)C5)CC3)no2)C(C)C)cc1` [Compound 29, (2S,4R)-1-[(2R)-2-{3-[4-({2-[(4-{3-[3-amino-6-(2-hydroxyphenyl)pyridazin-4-yl]-3,8-diazabicyclo[3.2.1]octan-8-yl}pyridin-2-yl)oxy]-7-azaspiro[3.5]nonan-7-yl}methyl)piperidin-1-yl]-1,2-oxazol-5-yl}-3-methylbutanoyl]-4-hydroxy-N-[(1S)-1-[4-(4-methyl-1,3-thiazol-5-yl)phenyl]ethyl]pyrrolidine-2-carboxamide], the 50% degradation concentration (DC50) is less than 2.5 nM and the maximal degradation (Dmax) is greater than 75%.
For the molecule `CC(C)[C@@H](C(=O)N1C[C@H](O)C[C@H]1C(=O)N[C@@H](C)c1ccc(-c2ccnn2C)cc1)c1cc(N2CCC(CN3CCC(O[C@H]4C[C@H](Oc5cc(/C=C/c6cc(-c7ccccc7O)nnc6N)ccn5)C4)CC3)CC2)no1` [Compound 30, (2S,4R)-4-hydroxy-N-[(1S)-1-[4-(1-methyl-1H-pyrazol-5-yl)phenyl]ethyl]-1-[(2R)-3-methyl-2-{3-[4-({4-[(1r,3r)-3-({4-[(1E)-2-[3-amino-6-(2-hydroxyphenyl)pyridazin-4-yl]ethenyl]pyridin-2-yl}oxy)cyclobutoxy]piperidin-1-yl}methyl)piperidin-1-yl]-1,2-oxazol-5-yl}butanoyl]pyrrolidine-2-carboxamide], the half-maximal degradation concentration (DC50) is less than 2.5 nM and the maximal degradation (Dmax) was greater than 75%.
Consider `Cc1ncsc1-c1ccc([C@H](C)NC(=O)[C@@H]2C[C@@H](O)CN2C(=O)[C@@H](c2cc(N3CCC(CN4CCC(CN5CCC6(CC5)CC(N5CCC(C(C)n7cc(-c8cc(-c9ccccc9O)nnc8N)cn7)CC5)C6)CC4)CC3)no2)C(C)C)cc1` (stereo partly drawn) [Compound 31, (2S,4R)-1-[(2R)-2-[3-(4-{[4-({2-[4-(1-{4-[3-amino-6-(2-hydroxyphenyl)pyridazin-4-yl]-1H-pyrazol-1-yl}ethyl)piperidin-1-yl]-7-azaspiro[3.5]nonan-7-yl}methyl)piperidin-1-yl]methyl}piperidin-1-yl)-1,2-oxazol-5-yl]-3-methylbutanoyl]-4-hydroxy-N-[(1S)-1-[4-(4-methyl-1,3-thiazol-5-yl)phenyl]ethyl]pyrrolidine-2-carboxamide], for which the DC50 is less than 2.5 nM and the greatest degradation seen (Dmax) is greater than 75%.
The corresponding values for `Cc1ncsc1-c1ccc([C@H](C)NC(=O)[C@@H]2C[C@@H](O)CN2C(=O)[C@@H](c2cc(N3CCC(CN4CCC5(CC4)CC(CN4CCC(Oc6cc(N7C8CCC7CN(c7cc(-c9ccccc9O)nnc7N)C8)ccn6)CC4)C5)CC3)no2)C(C)C)cc1` [Compound 32, (2S,4R)-1-[(2R)-2-[3-(4-{[2-({4-[(4-{3-[3-amino-6-(2-hydroxyphenyl)pyridazin-4-yl]-3,8-diazabicyclo[3.2.1]octan-8-yl}pyridin-2-yl)oxy]piperidin-1-yl}methyl)-7-azaspiro[3.5]nonan-7-yl]methyl}piperidin-1-yl)-1,2-oxazol-5-yl]-3-methylbutanoyl]-4-hydroxy-N-[(1S)-1-[4-(4-methyl-1,3-thiazol-5-yl)phenyl]ethyl]pyrrolidine-2-carboxamide] are less than 2.5 nM and greater than 75%.
The corresponding values for `CC(C)[C@H](C(=O)N1C[C@H](O)C[C@H]1C(=O)N[C@@H](C)c1ccc(-c2ccnn2C)cc1)c1cc(N2CCC(CN3CCC(CN4CCC5(CC4)CC(Oc4cc(N6C7CCC6CN(c6cc(-c8ccccc8O)nnc6N)C7)ccn4)C5)CC3)CC2)no1` [Compound 33, (2S,4R)-1-[(2S)-2-[3-(4-{[4-({2-[(4-{3-[3-amino-6-(2-hydroxyphenyl)pyridazin-4-yl]-3,8-diazabicyclo[3.2.1]octan-8-yl}pyridin-2-yl)oxy]-7-azaspiro[3.5]nonan-7-yl}methyl)piperidin-1-yl]methyl}piperidin-1-yl)-1,2-oxazol-5-yl]-3-methylbutanoyl]-4-hydroxy-N-[(1S)-1-[4-(1-methyl-1H-pyrazol-5-yl)phenyl]ethyl]pyrrolidine-2-carboxamide] are 10 to 30 nM and greater than 75%.
With `CC(C)C(C(=O)N1C[C@H](O)C[C@H]1C(=O)N[C@@H](C)c1ccc(-c2ccnn2C)cc1)c1cc(OCC#Cc2ncc(O[C@H]3C[C@H](Oc4cc(N5CCN(c6cc(-c7ccccc7O)nnc6N)CC5)ccn4)C3)cn2)no1` (stereo partly drawn) [Compound 34, (2S,4R)-4-hydroxy-N-[(1S)-1-[4-(1-methyl-1H-pyrazol-5-yl)phenyl]ethyl]-1-(3-methyl-2-{3-[(3-{5-[(1r,3r)-3-[(4-{4-[3-amino-6-(2-hydroxyphenyl)pyridazin-4-yl]piperazin-1-yl}pyridin-2-yl)oxy]cyclobutoxy]pyrimidin-2-yl}prop-2-yn-1-yl)oxy]-1,2-oxazol-5-yl}butanoyl)pyrrolidine-2-carboxamide], the half-maximal degradation concentration (DC50) was less than 2.5 nM and the Dmax is greater than 75%.
In the same order, the values of `Cc1ncsc1-c1ccc([C@H](C)NC(=O)[C@@H]2C[C@@H](O)CN2C(=O)[C@@H](c2cc(N3CCC(CN4CCC5(CC4)CC(N4CCO[C@H](CN6C7CCC6CN(c6cc(-c8ccccc8O)nnc6N)C7)C4)C5)CC3)no2)C(C)C)cc1` [Compound 35, (2S,4R)-1-[(2R)-2-{3-[4-({2-[(2S)-2-({3-[3-amino-6-(2-hydroxyphenyl)pyridazin-4-yl]-3,8-diazabicyclo[3.2.1]octan-8-yl}methyl)morpholin-4-yl]-7-azaspiro[3.5]nonan-7-yl}methyl)piperidin-1-yl]-1,2-oxazol-5-yl}-3-methylbutanoyl]-4-hydroxy-N-[(1S)-1-[4-(4-methyl-1,3-thiazol-5-yl)phenyl]ethyl]pyrrolidine-2-carboxamide] are less than 2.5 nM and greater than 75%.
